Read-outs that look alike come from different tables or passages of the source. Where a SMILES comes first, the peptide text is derived from it.

Here are results for six molecules from patent publication US20200048308A1, “INFLUENZA VIRUS NE[…]” (priority 2016, published 2020).

In assay [1] the target is H1/Nca HA (biotinylated full length trimeric HA, A/New Caledonia/20/1999) (Influenza A virus, UniProt Q6WG00). Put plainly: AlphaLISA competition assay with HB80.4, H1/NCa HA. Format: binding, influenza A virus H1N1 A/New Caledonia/20/1999. From the text:
(§1) Binding competition studies were designed to test compounds of the invention for competition with other well characterized HA binding proteins (such as e.g. CR9114, CR6261 and HB80.4) with known epitopes on HA. The epitopes where either located at the stem of the HA (viral membrane proximal part of HA) or, for control purposes, at the head of HA (viral membrane distal part of HA). If competition was observed, it was assumed that both molecules bind to a similar or at least overlapping epitope at the surface of HA. Competition with a HA head- and stem-binder was interpreted as unspecific binding.
(§2) Hereto an AlphaLISA competition assay (Perkin Elmer) was established which relied on biotinylated full length and trimeric HA proteins (Protein Sciences, 10 μL, 0.5 nM final concentration in 50 μL) bound by HA-specific binders. The interaction between HA and the binder was detected after 1 h incubation at room temperature (RT) with two beads, a streptavidin donor bead recognizing HA (10 μL of 10 μg/mL) and an anti Fc bead (10 μg/mL) recognizing the IgGs used. If after an additional hour of incubation at RT the excited donor bead (680 nm) and acceptor bead are in close proximity, an energy transfer (singlet oxygen) can be measured as a luminescence signal of the acceptor bead (Perkin Elmer EnVision plate reader). The signal intensity in this homogeneous assay format is directly proportional to the binding strength (affinity/avidity) between both binding partners.

Assay [2] addresses H1/Cal HA (biotinylated full length trimeric HA, A/California/07/2009) (Influenza A virus, UniProt C3W5X2). The assay is described as follows: AlphaLISA competition assay with HB80.4, H1/Cal HA. Format: binding, influenza A virus H1N1 A/California/07/2009.
Text: as §1, §2

For the molecule `CSCC[C@@H]1NC(=O)[C@H](CCC(=O)O)NC(=O)CNC(=O)[C@H](C)NC(=O)[C@H](C(C)C)NC(=O)CNC(=O)[C@H](CC(C)C)NC(=O)[C@@H]2CCCN2C(=O)[C@H](CC(=O)O)NC(=O)[C@H](CCCNC(=N)N)NC(=O)[C@H](Cc2ccc(O)cc2)NC(=O)[C@H](CC(C)C)NC(=O)[C@@H](NC(=O)CCC(=O)O)CSSC[C@@H](C(N)=O)NC(=O)CNC1=O` [CP141071, Suc-Cys-Leu-Tyr-Arg-Asp-Pro-Leu-Gly-Val-Ala-Gly-Glu-Met-Gly-Cys-NH2] (HELM PEPTIDE1{[O=C(O)CCC(=O)[*:2]].C.L.Y.R.D.P.L.G.V.A.G.E.M.G.C.[am]}$PEPTIDE1,PEPTIDE1,2:R3-16:R3$$$V2.0), the IC50 is 2 µM in assay [1] (ALC_H1_NCa_HB80.4 calculated pIC50, AlphaLISA competition with HB80.4 on H1 NCa HA, 0.5 nM HA) and 0.501 µM in assay [2].

As for `CC[C@@H]1NC(=O)[C@H](C(C)C)NC(=O)CNC(=O)[C@H](CCCc2ccccc2)NC(=O)[C@@H]2CCCN2C(=O)[C@H](CC(=O)O)NC(=O)[C@H](CCCNC(=N)N)NC(=O)[C@H](Cc2ccc(O)cc2)NC(=O)[C@@H](NC(=O)CCC(=O)O)CSSC[C@@H](C(N)=O)NC(=O)[C@H](CCSC)NC(=O)[C@H](CCC(=O)O)NC(=O)CNC1=O` [CP141093, Suc-Cys-Tyr-Arg-Asp-Pro-Ph5-Gly-Val-Abu-Gly-Glu-Met-Cys-NH2] (HELM PEPTIDE1{[O=C(O)CCC(=O)[*:2]].C.Y.R.D.P.[O=C([C@H](CCCc1ccccc1)N[*:1])[*:2]].G.V.[Abu].G.E.M.C.[am]}$PEPTIDE1,PEPTIDE1,2:R3-14:R3$$$V2.0), the results for the IC50 in assay [1] and in assay [2] were 20 µM and 10 µM, respectively.

As for `CSCC[C@@H]1NC(=O)[C@H](CCC(=O)O)NC(=O)CNC(=O)[C@H](C)NC(=O)[C@H](C(C)C)NC(=O)CNC(=O)[C@H](CC(C)C)NC(=O)[C@@H]2CCCN2C(=O)[C@H](CC(=O)O)NC(=O)[C@H](CCCNC(=N)N)NC(=O)[C@H](Cc2ccc(O)cc2)NC(=O)[C@@H](NC(=O)CCC(=O)O)CSSC[C@@H](C(N)=O)NC1=O` [CP141072, Suc-Cys-Tyr-Arg-Asp-Pro-Leu-Gly-Val-Ala-Gly-Glu-Met-Cys-NH2], the values for the half-maximal inhibitory concentration (IC50) in assay [1] and in assay [2] were 12.6 µM and 15.8 µM, respectively.

For `CCCC[C@@H]1NC(=O)[C@H](CCC(=O)O)NC(=O)CNC(=O)[C@H](C)NC(=O)[C@H](C(C)C)NC(=O)CNC(=O)[C@H](CC(C)C)NC(=O)[C@@H]2CCCN2C(=O)[C@H](CC(=O)O)NC(=O)[C@H](CCCNC(=N)N)NC(=O)[C@H](Cc2ccc(O)cc2)NC(=O)[C@@H](NC(=O)CCC(=O)O)CSSC[C@@H](C(N)=O)NC1=O` [CP141089, Suc-Cys-Tyr-Arg-Asp-Pro-Leu-Gly-Val-Ala-Gly-Glu-Nlu-Cys-NH2], the IC50 in assay [1] was 50.1 µM; in assay [2], 25.1 µM.

With `CC[C@@H]1NC(=O)[C@H](C(C)C)NC(=O)CNC(=O)[C@H](CCCc2ccccc2)NC(=O)[C@@H]2CCCN2C(=O)[C@H](CC(=O)O)NC(=O)[C@H](CCC(=O)O)NC(=O)[C@H](Cc2ccc(O)cc2)NC(=O)[C@H](CC(C)C)NC(=O)CNC(=O)[C@H]2CCCN2C(=O)CNC(=O)[C@H](CCSC)NC(=O)CNC(=O)CNC1=O` [CP141092, Gly-Leu-Tyr-Glu-Asp-Pro-Ph5-Gly-Val-Abu-Gly-Gly-Met-Gly-D-Pro] (HELM PEPTIDE1{[Abu].G.G.M.G.[dP].G.L.Y.E.D.P.[O=C([C@H](CCCc1ccccc1)N[*:1])[*:2]].G.V}$PEPTIDE1,PEPTIDE1,1:R1-15:R2$$$V2.0), the results for the half-inhibitory concentration (IC50) in assay [1] and in assay [2] were 0.251 µM and 0.398 µM, respectively.

In the case of `CCCC[C@H](NC(=O)CNC(=O)CNC(=O)[C@H](C)NC(=O)[C@@H](NC(=O)CNC(=O)[C@H](CC(C)C)NC(=O)[C@@H]1CCCN1C(=O)[C@H](CC(=O)O)NC(=O)[C@H](CCCNC(=N)N)NC(=O)[C@H](Cc1ccc(O)cc1)NC(=O)[C@H](CC(C)C)NC(=O)[C@H](CO)NC(=O)[C@@H](NC(=O)CCC(=O)O)C(C)C)C(C)C)C(=O)NCC(=O)N[C@H](C(=O)N[C@@H](Cc1ccc(O)cc1)C(N)=O)C(C)C` [CP141081, Suc-Val-Ser-Leu-Tyr-Arg-Asp-Pro-Leu-Gly-Val-Ala-Gly-Gly-Nlu-Gly-Val-Tyr-NH2], the IC50 in assay [1] is 7.94 µM; in assay [2] it was 3.16 µM.

Usually IC50 stands for the concentration that gives 50% inhibition.
